The structures appear in SMILES notation.

The target in the first assay is T1, Mer (Homo sapiens, UniProt Q12866).
T1 sequence (Q12866 21-999): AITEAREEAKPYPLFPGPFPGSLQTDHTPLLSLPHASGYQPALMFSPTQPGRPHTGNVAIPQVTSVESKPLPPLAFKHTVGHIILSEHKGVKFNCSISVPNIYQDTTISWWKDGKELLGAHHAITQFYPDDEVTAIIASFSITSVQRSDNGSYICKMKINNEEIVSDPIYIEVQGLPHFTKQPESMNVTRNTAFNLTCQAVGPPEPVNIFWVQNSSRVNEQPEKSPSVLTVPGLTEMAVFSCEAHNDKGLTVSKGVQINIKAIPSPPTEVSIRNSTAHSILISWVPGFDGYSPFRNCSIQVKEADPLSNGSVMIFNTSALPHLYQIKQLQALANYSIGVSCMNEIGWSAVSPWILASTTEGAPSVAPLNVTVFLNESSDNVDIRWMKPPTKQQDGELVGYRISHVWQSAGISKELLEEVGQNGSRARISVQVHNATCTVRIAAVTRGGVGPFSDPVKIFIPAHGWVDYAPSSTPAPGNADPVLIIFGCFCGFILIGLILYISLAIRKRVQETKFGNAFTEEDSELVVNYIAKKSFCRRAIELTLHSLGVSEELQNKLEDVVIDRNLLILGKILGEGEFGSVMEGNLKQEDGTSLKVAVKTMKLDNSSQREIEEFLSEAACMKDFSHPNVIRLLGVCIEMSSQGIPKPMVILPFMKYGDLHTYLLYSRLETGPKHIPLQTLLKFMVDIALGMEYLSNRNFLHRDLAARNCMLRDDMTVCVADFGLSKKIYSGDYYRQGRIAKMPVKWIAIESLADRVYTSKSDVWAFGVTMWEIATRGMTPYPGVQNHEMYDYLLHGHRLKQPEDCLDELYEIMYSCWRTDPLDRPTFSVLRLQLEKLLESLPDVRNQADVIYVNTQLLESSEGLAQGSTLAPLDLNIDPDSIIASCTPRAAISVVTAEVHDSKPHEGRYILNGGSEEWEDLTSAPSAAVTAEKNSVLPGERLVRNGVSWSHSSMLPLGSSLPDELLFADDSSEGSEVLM
Briefly: Mer kinase inhibition IC50. It counts as biochemical. The note with it: Table 2; read-out: Mer IC50.
By IC50 is commonly meant the concentration needed to halve the response being measured. Take `CN1CCN(Cc2ccc(-c3ccc(Nc4ncc(-c5ccccn5)c(N[C@H]5CC[C@H](O)CC5)n4)cc3)cc2)CC1` [UNC4437A]: the IC50 lay in the range of 100 to 1000 nM.

The same assay, now with this note: Table 3; read-out: Mer IC50.
On to `CN1CCN(Cc2ccc(-c3cnc(Nc4ccc(C#Cc5cc(C6OCCO6)ccn5)cc4)nc3N[C@H]3CC[C@H](O)CC3)cc2)CC1` [UNC3437A], for which the IC50 was in the range of 10 to 100 nM.
`NS(=O)(=O)c1ccc(-c2cnc(Nc3ccc(C#Cc4cc(C(=O)NC5CC5)ccn4)cc3)nc2N[C@H]2CC[C@H](O)CC2)nc1` [UNC3457A]: the IC50 lay in the range of 10 to 100 nM.
As for `CCNC(=O)c1ccnc(C#Cc2ccc(Nc3ncc(-c4ccccn4)c(N[C@H]4CC[C@H](O)CC4)n3)cc2)c1` [UNC3458A], the IC50 was less than 10 nM.
Consider `CN(C)C(=O)c1ccnc(C#Cc2ccc(Nc3ncc(-c4ccccn4)c(N[C@H]4CC[C@H](O)CC4)n3)cc2)c1` [UNC3459A], for which the IC50 was 10 to 100 nM.
Take `O=S(=O)(c1ccc(-c2cnc(Nc3ccc(C#Cc4cc(C5OCCO5)ccn4)cc3)nc2N[C@H]2CC[C@H](O)CC2)nc1)N1CCOCC1` [UNC3619A]: the IC50 is less than 10 nM.
Turning to `CN1CCN(Cc2ccc(-c3cnc(Nc4ccc(C#Cc5cc(NC(=O)C6CC6)ccn5)cc4)nc3N[C@H]3CC[C@H](O)CC3)cc2)CC1` [UNC3622A], the IC50 is less than 10 nM.
As to `CN1CCN(Cc2ccc(-c3cnc(Nc4ccc(C#Cc5cc(NC(=O)c6ccccc6)ccn5)cc4)nc3N[C@H]3CC[C@H](O)CC3)cc2)CC1` [UNC3868A], the IC50 is less than 10 nM.
Take `CN1CCN(Cc2ccc(-c3cnc(Nc4ccc(C#Cc5cc(N)ccn5)cc4)nc3N[C@H]3CC[C@H](O)CC3)cc2)CC1` [UNC3869A]: the IC50 was in the range of 10 to 100 nM.
With `CC(C)C(=O)Nc1ccnc(C#Cc2ccc(Nc3ncc(-c4ccc(CN5CCN(C)CC5)cc4)c(N[C@H]4CC[C@H](O)CC4)n3)cc2)c1` [UNC3870A], the IC50 was less than 10 nM.
Regarding `CN1CCN(Cc2ccc(-c3cnc(Nc4ccc(C#Cc5cc(NC(=O)C6CCC6)ccn5)cc4)nc3N[C@H]3CC[C@H](O)CC3)cc2)CC1` [UNC3871A], the IC50 was less than 10 nM.

The target in another assay is T2, Axl (Homo sapiens, UniProt P30530).
T2 sequence (P30530 26-894): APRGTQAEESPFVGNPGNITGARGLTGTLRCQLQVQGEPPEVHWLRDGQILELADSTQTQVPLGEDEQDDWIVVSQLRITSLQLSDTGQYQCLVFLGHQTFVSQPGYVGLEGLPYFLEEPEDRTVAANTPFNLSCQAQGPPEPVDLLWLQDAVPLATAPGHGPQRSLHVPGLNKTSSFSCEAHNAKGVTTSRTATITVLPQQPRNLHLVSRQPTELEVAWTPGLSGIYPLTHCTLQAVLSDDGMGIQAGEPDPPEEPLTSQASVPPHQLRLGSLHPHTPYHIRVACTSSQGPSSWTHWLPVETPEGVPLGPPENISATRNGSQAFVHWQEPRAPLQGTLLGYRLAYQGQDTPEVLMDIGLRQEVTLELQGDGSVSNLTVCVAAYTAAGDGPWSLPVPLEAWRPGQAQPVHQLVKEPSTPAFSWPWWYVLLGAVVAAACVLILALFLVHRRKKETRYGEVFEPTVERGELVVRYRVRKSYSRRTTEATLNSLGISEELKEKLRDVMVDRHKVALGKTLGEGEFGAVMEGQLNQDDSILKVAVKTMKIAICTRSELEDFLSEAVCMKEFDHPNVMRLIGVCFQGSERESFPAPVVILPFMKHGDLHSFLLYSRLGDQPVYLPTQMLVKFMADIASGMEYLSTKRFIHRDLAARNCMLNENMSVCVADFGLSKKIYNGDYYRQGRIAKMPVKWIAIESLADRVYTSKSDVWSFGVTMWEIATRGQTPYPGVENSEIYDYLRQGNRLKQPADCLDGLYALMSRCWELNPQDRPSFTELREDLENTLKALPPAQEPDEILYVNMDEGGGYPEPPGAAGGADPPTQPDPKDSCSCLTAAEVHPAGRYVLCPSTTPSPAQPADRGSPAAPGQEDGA
Briefly: Axl kinase inhibition IC50. Format: biochemical. As to conditions: Table 3.
Take `CN1CCN(Cc2ccc(-c3cnc(Nc4ccc(C#Cc5cc(C6OCCO6)ccn5)cc4)nc3N[C@H]3CC[C@H](O)CC3)cc2)CC1` [UNC3437A]: the IC50 lay in the range of 100 to 1000 nM.
Still for that read-out and setting: next, `NS(=O)(=O)c1ccc(-c2cnc(Nc3ccc(C#Cc4cc(C(=O)NC5CC5)ccn4)cc3)nc2N[C@H]2CC[C@H](O)CC2)nc1` [UNC3457A]: 10 to 100 nM; `CCNC(=O)c1ccnc(C#Cc2ccc(Nc3ncc(-c4ccccn4)c(N[C@H]4CC[C@H](O)CC4)n3)cc2)c1` [UNC3458A]: less than 10 nM; `CN(C)C(=O)c1ccnc(C#Cc2ccc(Nc3ncc(-c4ccccn4)c(N[C@H]4CC[C@H](O)CC4)n3)cc2)c1` [UNC3459A]: 1000 to 30000 nM.
Molecule `O=S(=O)(c1ccc(-c2cnc(Nc3ccc(C#Cc4cc(C5OCCO5)ccn4)cc3)nc2N[C@H]2CC[C@H](O)CC2)nc1)N1CCOCC1` [UNC3619A] gave a concentration for half-maximal inhibition (IC50) of 100 to 1000 nM.
The same measure, in the same setting: next, `CN1CCN(Cc2ccc(-c3cnc(Nc4ccc(C#Cc5cc(NC(=O)C6CC6)ccn5)cc4)nc3N[C@H]3CC[C@H](O)CC3)cc2)CC1` [UNC3622A]: less than 10 nM; `CN1CCN(Cc2ccc(-c3cnc(Nc4ccc(C#Cc5cc(NC(=O)c6ccccc6)ccn5)cc4)nc3N[C@H]3CC[C@H](O)CC3)cc2)CC1` [UNC3868A]: 10 to 100 nM.
With `CN1CCN(Cc2ccc(-c3cnc(Nc4ccc(C#Cc5cc(N)ccn5)cc4)nc3N[C@H]3CC[C@H](O)CC3)cc2)CC1` [UNC3869A], the IC50 lay in the range of 1000 to 30000 nM.
Regarding `CC(C)C(=O)Nc1ccnc(C#Cc2ccc(Nc3ncc(-c4ccc(CN5CCN(C)CC5)cc4)c(N[C@H]4CC[C@H](O)CC4)n3)cc2)c1` [UNC3870A], the IC50 was less than 10 nM.
Molecule `CN1CCN(Cc2ccc(-c3cnc(Nc4ccc(C#Cc5cc(NC(=O)C6CCC6)ccn5)cc4)nc3N[C@H]3CC[C@H](O)CC3)cc2)CC1` [UNC3871A] registered an IC50 of 10 to 100 nM.

The target of the next assay is T3, Tyro3 (Homo sapiens, UniProt Q06418).
T3 sequence (Q06418 41-890): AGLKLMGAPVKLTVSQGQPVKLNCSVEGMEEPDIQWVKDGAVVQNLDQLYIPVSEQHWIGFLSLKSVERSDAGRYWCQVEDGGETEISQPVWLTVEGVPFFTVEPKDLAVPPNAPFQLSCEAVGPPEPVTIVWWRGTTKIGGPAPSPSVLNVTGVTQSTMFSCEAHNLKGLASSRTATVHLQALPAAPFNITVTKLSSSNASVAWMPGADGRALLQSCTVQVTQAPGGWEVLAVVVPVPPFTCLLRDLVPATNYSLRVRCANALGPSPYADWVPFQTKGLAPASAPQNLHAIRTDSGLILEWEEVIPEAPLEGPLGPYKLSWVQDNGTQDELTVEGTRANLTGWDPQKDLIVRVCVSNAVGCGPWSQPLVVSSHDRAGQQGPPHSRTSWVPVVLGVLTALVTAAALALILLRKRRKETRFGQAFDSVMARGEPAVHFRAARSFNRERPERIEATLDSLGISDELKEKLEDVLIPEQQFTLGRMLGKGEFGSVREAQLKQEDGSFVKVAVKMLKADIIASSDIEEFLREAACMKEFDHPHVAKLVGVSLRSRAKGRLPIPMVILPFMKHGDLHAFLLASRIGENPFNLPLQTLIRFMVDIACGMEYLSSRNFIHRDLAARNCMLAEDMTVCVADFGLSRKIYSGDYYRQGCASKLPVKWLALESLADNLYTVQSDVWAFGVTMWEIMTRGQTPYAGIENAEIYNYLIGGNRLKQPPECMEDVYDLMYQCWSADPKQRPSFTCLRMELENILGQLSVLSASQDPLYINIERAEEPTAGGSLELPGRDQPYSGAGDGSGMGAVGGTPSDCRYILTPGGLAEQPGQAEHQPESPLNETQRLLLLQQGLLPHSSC
Briefly: Tyro3 kinase inhibition IC50. The note with it: Table 3; read-out: Tyro3 IC50. Format: biochemical.
Consider `NS(=O)(=O)c1ccc(-c2cnc(Nc3ccc(C#Cc4cc(C(=O)NC5CC5)ccn4)cc3)nc2N[C@H]2CC[C@H](O)CC2)nc1` [UNC3457A], for which the half-maximal inhibitory concentration (IC50) fell in the range of 100 to 1000 nM.
For the molecule `CCNC(=O)c1ccnc(C#Cc2ccc(Nc3ncc(-c4ccccn4)c(N[C@H]4CC[C@H](O)CC4)n3)cc2)c1` [UNC3458A], the IC50 is less than 10 nM.
Consider `CN(C)C(=O)c1ccnc(C#Cc2ccc(Nc3ncc(-c4ccccn4)c(N[C@H]4CC[C@H](O)CC4)n3)cc2)c1` [UNC3459A], for which the IC50 is less than 10 nM.
The same measure, in the same setting: next, `O=S(=O)(c1ccc(-c2cnc(Nc3ccc(C#Cc4cc(C5OCCO5)ccn4)cc3)nc2N[C@H]2CC[C@H](O)CC2)nc1)N1CCOCC1` [UNC3619A]: less than 10 nM; `CN1CCN(Cc2ccc(-c3cnc(Nc4ccc(C#Cc5cc(NC(=O)C6CC6)ccn5)cc4)nc3N[C@H]3CC[C@H](O)CC3)cc2)CC1` [UNC3622A]: less than 10 nM; `CN1CCN(Cc2ccc(-c3cnc(Nc4ccc(C#Cc5cc(NC(=O)c6ccccc6)ccn5)cc4)nc3N[C@H]3CC[C@H](O)CC3)cc2)CC1` [UNC3868A]: 10 to 100 nM.
Consider `CN1CCN(Cc2ccc(-c3cnc(Nc4ccc(C#Cc5cc(N)ccn5)cc4)nc3N[C@H]3CC[C@H](O)CC3)cc2)CC1` [UNC3869A], for which the IC50 was in the range of 100 to 1000 nM.
As to `CC(C)C(=O)Nc1ccnc(C#Cc2ccc(Nc3ncc(-c4ccc(CN5CCN(C)CC5)cc4)c(N[C@H]4CC[C@H](O)CC4)n3)cc2)c1` [UNC3870A], the IC50 is less than 10 nM.
Consider `CN1CCN(Cc2ccc(-c3cnc(Nc4ccc(C#Cc5cc(NC(=O)C6CCC6)ccn5)cc4)nc3N[C@H]3CC[C@H](O)CC3)cc2)CC1` [UNC3871A], for which the IC50 is less than 10 nM.

The values are drawn from patent US10526309B2, “Pan-TAM inhibitors and Mer/Axl dual inhibitors” (The University of North Carolina at Chapel Hill, priority 2015, dated 2020).
